Measurements reported in US10844023B2 (Washington University, priority 2017, dated 2020).
pEC50: −log10 of the molar value. Each block holds one compound with its values, some of them ahead of it. * marks the point of attachment. FITC = O=C1OC2(c3ccc(O)cc3Oc3cc(O)ccc32)c2ccc(NC(=S)*)cc21

Columns and labels:
[1] = test system: cultured neurons expressing MFN2 T105M; assay: Cultured mouse neurons expressing CMT2A mutant MFN2; type: cell-based
Description: Neonatal mouse hippocampal neurons were cultured from brains of one day old Mfn2 T105M or non-transgenic sibling mouse pups as described. After 10 days of differentiating culture neurons were infected with Adeno-Cre to induce Mfn2 T105M expression or Adeno-βgal as a control (50 MOI). After an additional 72 hours mitofusin agonists or DMSO vehicle were added. For static confocal imaging neuronal mitochondria were labeled with adenoviral-expressed mitoGFP plus TMRE. Autophagy was measured by LC3 aggregation in neurons infected with adenoviral LC3-GFP. For time-lapse studies of mitochondrial trafficking bi-cistronic Adeno-Cre/GFP marked Cre expression and mitochondria were labeled with adeno-mitoDsRed. Confocal live cell images were acquired with a time-lapse of 1 frame every 90 seconds for 1 hour.

MFN2 HR2 = biological target: T1, MFN2 HR2 (Homo sapiens, UniProt O95140); assay: HR1 peptide-HR2 target binding assay; settings: FITC minipeptide 374-384 at HR2 binding site
T1 construct: host or cells: synthetic peptide (note in the listing); immobilised on Ni-NTA resin
T1 sequence (O95140 with tags, fused parts or gaps limits assumed): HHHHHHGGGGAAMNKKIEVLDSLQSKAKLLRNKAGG
From the text: The Mfn-derived fusion-promoting and -inhibiting mini-peptides (simulated to obtain the chemical Mfn agonists in TABLE 1 and TABLE 2) were modified from amino acid heptad repeats (HR) in the HR1 domain and predicted to interact with their counterparts in the carboxyl terminus HR2 domain within the Mfn stalk region (see e.g., FIG. 1, top panel). A high-throughput binding assay was designed whereby the target HR2 peptide sequences, modified to include amino terminal 6×His tags and Gly linkers, were bonded to Ni-chelate resin (20 μg/ml) and used as immobilized “receptor” for amino-FITC-tagged Mfn2 374-384 (agonist ligand) in which the Ser analogous to Ser378 was replaced with Asp to confer the negative charge essential for activity. For antagonist studies the ligand was amino-FITC-tagged Mfn2 406-418. The FITC peptide ligands are suspended at 1 mM in 30% DMSO, 70% water (to minimize spontaneous aggregation) and diluted into binding buffer (de-ionized water) to a final concentration of 25 μM in the presence or absence of competing compound. Dose-dependent loss of resin-bound FITC signal (485 nm excitation/538 nm emission) measured in a 96 well spectrofluorometer represents binding of compound to its HR2 target (see e.g., FIG. 10, FIG. 11). Either the ligand peptide or the receptor peptide can be modified to represent mutations, variations, or posttranslational modifications of Mfn2. […]
Target HR2 peptide sequence modified to include amino terminal 6×His tags and Gly linkers, were bonded to Ni-NTA resin (4.4 μg/ml) (Quiagen) and used as immobilized “receptor” for amino-FITC-tagged Mfn2 374-384 (ligand) in which the Ser analogous to Ser378 was replaced with Asp to confer the negative charge essential for activity. […] Resin-bound FITC signal (485 nm excitation/538 nm emission) measured in a 96 well spectrofluorometer (Spectramax M5e, Molecular Devices) represented binding to HR2 target. Competition binding isotherms were plotted and IC50 values calculated using Prism 7 (GraphPad).

[2] = test system: MFN2 T105M sciatic nerves; assay: Sciatic nerve axonal mitochondrial motility, agonist applied to the excised nerve; set-up: species or system mouse
Description: Sciatic nerves of 12-18 week old male or female MFN2 T105M mice were removed en bloc with the lumbar spine and axotomy at the tibial nerve, stained with TMEM ([…]) for 30 minutes in prewarmed Neurobasal Medium without phenol red (Thermo Fisher Scientific) at room temperature, washed, and maintained on the stage of a Nikon A1Rsi Confocal Microscope at 37 degrees C. for time-lapse confocal studies. Images were acquired with a 40×oil immersion objective at 1 frame every 5 or 10 seconds for sequential 10 minute periods. Mitofusin agonist chimera B-A/I was added after the first 10 minute imaging period (final concentrations of […]) and nerve axons imaged for another 40 minutes. Because there was no difference in mitochondrial trafficking or response to mitofusin agonist between male and female mice, the data were combined.

[3] = test system: ALS and HD patient-derived fibroblasts; assay: Mitochondrial health assays in ALS and HD patient-derived fibroblasts; type: cell-based, human
Description: HD patient-derived fibroblast cell lines (GM04693 from patient and GM05539 from patient) were purchased from Invitrogen. ALS patient-derived fibroblasts (ALS 1: ND29509 from patient having SOD1 mutation; ALS 2: ND30327 having FUS1 mutation) and fibroblasts of control healthy individuals were purchased from Coriell Institute, USA. All fibroblast cultures were maintained in MEM supplemented with 15% (v/v) FBS and 1% (v/v) penicillin/streptomycin at 37° C. in 5% CO2-95% air. Galactose media was used, to increase mitochondria-dependent metabolism oxidative phosphorylation. Human fibroblasts were switched to grow for 48 h in DMEM deprived of glucose and containing galactose (4.5 g/I), 1% FBS, 5 mM sodium pyruvate and 2 mM L-glutamine for the studies.
Cells cultured in 8-well chamber slides were washed with cold PBS, fixed in 4% formaldehyde, and permeabilized with 0.1% Triton X-100. After incubation with 2% normal goat serum (to block nonspecific staining), fixed cells were incubated overnight at 4° C. with TOM20 antibody (1:500) (Santa Cruz, USA). Cells were washed with PBS and incubated for 60 minutes with FITC-conjugated goat anti-rabbit IgG (1:500 dilution). The cells were then washed gently with PBS and counterstained with Hoechst 33342 (1:10,000 dilution, Molecular Probes) to visualize nuclei. The coverslips were mounted with Slow-fade anti-fade reagent (Invitrogen), and images were acquired at 60×using an All-in-One Fluorescence Microscope BZ-X700 (Keyence).
Cells were incubated with tetra-methyl-rhodamine methyl ester (TMRM, 25 nM, Invitrogen) in HBSS (Hank's balanced salt solution) for 30 min at 37° C., per the manufacture's protocol, and the fluorescence was analyzed to measure mitochondrial membrane potential. All data were normalized with respect to the fluorescence intensity of control cells. To determine mitochondrial ROS production, cells were treated with 5 μM MitoSOX™ Red, a mitochondrial superoxide indicator (Invitrogen) for 20 min at 37° C., according to the manufacturer's protocol, and fluorescence was analyzed using SpectraMax M2e (Molecular devices).

[4] = test system: MFN2 Asp^378 and Ala^378 mutants; assay: Mitochondrial fusion with MFN2 Ser378 mutants (Asp378, Ala378); type: cell-based, human
MFN2 T105M = assay: Reversal of mitochondrial dysmorphology provoked by MFN2 T105M in MEFs; type: cell-based, mouse
Mfn2 null MEFs = assay: Mitochondrial elongation (aspect ratio) fusogenicity assay; type: cell-based, mouse; set-up: % long compare to B: dose or concentration left out as unconfirmed; settings: for Fusogenic activity: mitochondrial elongation / fusion; for % long compare to B: mitochondrial elongation relative to Cpd B (B01 = 100), Mfn2 null MEFs, compound overnight as printed (FIG. 48)
[5] = Human liver microsome stability assay; type: in vitro ADME; settings: human liver microsomes (FIG. 49)
Description: FIG. 49 is a series of structures and a graph showing dose-response and human liver microsomal stability data for fusogenic compounds from FIG. 22. […] T1/2 values are from human liver microsome stability assay.
(§1) Plasma protein binding was measured using equilibrium dialysis; % bound=(1-[free compound in dialysate]/[total compound in retentate])×100. Plasma stability of […] compound in clarified freeze-thawed plasma was assessed by LC-MS/MS of supernatants after protein precipitation; 120 min data are reported for studies including 0, 10, 30, 60, and 120 min. Microsome stability of […] compound in liver microsomes (0.5 mg/ml) after 0, 5, 10, 20, 30, 60 min. incubation was assessed by LC/MS/MS of reaction extracts.

P-gp/MDR1 = P-gp/MDR1 (Homo sapiens, UniProt P08183); assay: P-gp/MDR1 transport; type: in vitro ADME
[6] = In vivo pharmacokinetics in mice; settings: mouse, 1 mg/kg IM
Description: (A) Three mice each were administered 1 mg/kg agonist IV, IP, or IM. Graphs are mean plasma concentration for each administration route. (B) Results for individual mice were administered 1 mg/kg indicated agonist IM.

[7] = Parallel artificial membrane permeability assay (PAMPA); type: in vitro ADME
Plasma stability = type: in vitro ADME
Description: as §1

[8] = Liver microsome stability; type: in vitro ADME
Description: as §1

[9] = Plasma protein binding (equilibrium dialysis); type: in vitro ADME
Description: as §1

[10] = Solubility in 50 mM phosphate buffer (pH 7.4); type: physicochemical
[11] = test system: Mfn1/Mfn2 double null MEFs; assay: Mitochondrial elongation in Mfn1/Mfn2 double null MEFs; type: cell-based, mouse
From the text: A cultured murine embryonic fibroblast assay system was used in which mitochondrial elongation (an increase in aspect ratio) reflects enhanced mitochondrial fusion.

[12] = ALS and HD patient-derived fibroblasts

Chain of P-gp/MDR1 (P08183 whole entry): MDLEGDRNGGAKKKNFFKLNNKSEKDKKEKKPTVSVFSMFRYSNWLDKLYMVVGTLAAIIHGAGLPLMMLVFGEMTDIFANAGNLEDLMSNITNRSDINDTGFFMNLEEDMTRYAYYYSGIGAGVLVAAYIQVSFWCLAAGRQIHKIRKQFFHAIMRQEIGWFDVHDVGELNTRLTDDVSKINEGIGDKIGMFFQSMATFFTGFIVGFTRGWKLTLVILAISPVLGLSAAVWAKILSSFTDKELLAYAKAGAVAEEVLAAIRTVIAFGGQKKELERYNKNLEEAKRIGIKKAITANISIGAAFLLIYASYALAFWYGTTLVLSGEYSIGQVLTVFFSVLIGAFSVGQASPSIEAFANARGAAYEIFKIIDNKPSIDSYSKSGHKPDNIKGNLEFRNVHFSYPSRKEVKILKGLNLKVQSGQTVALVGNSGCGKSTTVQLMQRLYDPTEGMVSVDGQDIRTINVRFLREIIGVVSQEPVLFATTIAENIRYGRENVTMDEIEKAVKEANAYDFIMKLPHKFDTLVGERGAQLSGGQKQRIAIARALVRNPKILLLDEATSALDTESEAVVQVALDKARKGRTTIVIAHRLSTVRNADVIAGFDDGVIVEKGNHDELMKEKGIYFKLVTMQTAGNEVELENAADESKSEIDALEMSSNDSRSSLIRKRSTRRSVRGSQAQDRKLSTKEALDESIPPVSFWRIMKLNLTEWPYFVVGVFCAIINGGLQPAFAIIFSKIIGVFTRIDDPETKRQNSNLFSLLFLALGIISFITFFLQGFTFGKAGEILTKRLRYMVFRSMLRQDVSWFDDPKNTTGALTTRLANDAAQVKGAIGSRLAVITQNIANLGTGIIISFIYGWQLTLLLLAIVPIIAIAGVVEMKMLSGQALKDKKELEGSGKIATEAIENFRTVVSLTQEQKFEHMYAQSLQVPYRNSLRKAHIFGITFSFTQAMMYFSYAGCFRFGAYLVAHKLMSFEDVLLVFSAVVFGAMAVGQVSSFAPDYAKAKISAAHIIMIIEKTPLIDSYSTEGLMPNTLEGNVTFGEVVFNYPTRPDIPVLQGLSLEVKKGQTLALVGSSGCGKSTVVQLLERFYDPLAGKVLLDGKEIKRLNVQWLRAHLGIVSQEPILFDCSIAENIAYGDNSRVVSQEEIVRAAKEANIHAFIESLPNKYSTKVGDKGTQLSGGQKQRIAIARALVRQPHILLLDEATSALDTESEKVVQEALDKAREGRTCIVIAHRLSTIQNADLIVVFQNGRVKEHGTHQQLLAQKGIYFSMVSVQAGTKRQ

Compound: CC1CCCCC1NC(=O)NCCSc1nnc(C2CC2)n1-c1ccccc1 (racemic) [B-A/I, 1-(2-((5-cyclopropyl-4-phenyl-4H-1,2,4-triazol-3-yl)thio)ethyl)-3-(2-methylcyclohexyl)urea]
Mitochondrial motility in cultured neurons expressing MFN2 T105M [1]: restored mitochondrial motility | Binding to / competition at HR2 target (MFN2 HR2): competed for minipeptide binding at the MFN2 HR2 interaction site | Mitochondrial motility in MFN2 T105M sciatic nerves [2]: restored mitochondrial motility to within normal levels | Mitochondrial ROS levels [3, 12]: reduces mitochondrial ROS levels | Mitochondrial membrane potential [3, 12]: improves mitochondrial membrane potential | Mitochondrial structural defects [3, 12]: enhances mitochondrial structural defects | Effect on fibroblasts from control subjects ([3]; control fibroblasts): has no effect on fibroblasts from control subjects | Selectivity of fusogenic effect for phosphomimic Asp378 vs nonphosphorylatable Ala378 MFN2 [4]: non-selective | Reversal of mitochondrial dysmorphology provoked by MFN2 T105M (MFN2 T105M): as effective as the combination of Cpds A+B | Fusogenic activity (Mfn2 null MEFs): potently stimulated mitochondrial fusion

Compound: Cn1c(SCC(=O)Nc2sc3c(c2C(N)=O)CCC3)nnc1-c1ccccc1 [1-B1, 2-{2-[(4-methyl-5-phenyl-4H-1,2,4-triazol-3-yl]sulfanyl]acetamido}-4H,5H,6H-cyclopenta[b]thiophene-3-carboxamide]
Resistance to liver microsomal degradation vs Cpd B [5]: greater resistance to liver microsomal degradation | Fusogenic activity (Mfn2 null MEFs): more potent | % long compare to B (Mfn2 null MEFs): 107%

Compound: CCn1c(SCC(=O)Nc2sc3c(c2C(N)=O)CCC3)nnc1C1CC1 [1-G11, 2-{2-[(5-cyclopropyl-4-ethyl-4H-1,2,4-triazol-3-yl)sulfanyl]acetamido}-4H,5H,6H-cyclopenta[b]thiophene-3-carboxamide]
Resistance to liver microsomal degradation vs Cpd B [5]: greater resistance to liver microsomal degradation | Fusogenic activity (Mfn2 null MEFs): more potent | % long compare to B (Mfn2 null MEFs): 99%

Compound: CC1CCCCC1NC(=O)NCCSCc1ccccc1 (stereo not drawn) [compound A, 1-[2-(benzylsulfanyl)ethyl]-3-(2-methylcyclohexyl)urea]
Selectivity of fusogenic effect for phosphomimic Asp378 vs nonphosphorylatable Ala378 MFN2 [4]: specific for the Asp^378 mutant of MFN2 | pEC50 (Mfn2 null MEFs; Mus musculus, increase in mitochondrial aspect ratio): 6.70 to 7.00 | Fusogenic activity (Mfn2 null MEFs): induced mitochondrial elongation | Mitochondrial elongation in absence of both mitofusins [11]: did not occur in the absence of both of their mitofusin targets

Continued, in another order:

P-gp mediated transport (P-gp/MDR1): actively transported by P-gp/MDR1 | total plasma drug concentration 2 hours after IM administration [6]: undetectable | Passive diffusion across lipid-infused artificial membrane (PAMPA, words) [7]: excellent passive diffusion
Compound: CC1CCCCC1NC(=O)NCCCc1nnc(C2CC2)n1-c1ccccc1 (stereo not drawn) [Regeneurin-C, 1-(3-(5-cyclopropyl-4-phenyl-4H-1,2,4-triazol-3-yl)propyl)-3-(2-methylcyclohexyl)urea]

Plasma stability (Plasma stability): stable in plasma | Liver microsome stability [8]: rapidly degraded by liver microsomes | Plasma protein binding [9]: highly protein bound | Solubility [10]: soluble
Compound: CC1CCCCC1NC(=O)NCCSc1nnc(C2CC2)n1-c1ccccc1 (stereo not drawn) [Regeneurin-S, 1-(2-((5-cyclopropyl-4-phenyl-4H-1,2,4-triazol-3-yl)thio)ethyl)-3-(2-methylcyclohexyl)urea]
Mitochondrial motility in MFN2 T105M sciatic nerves [2]: rapidly correct mitochondrial dysmotility

Binding to / competition at HR2 target (MFN2 HR2): did not
Compound: Ala^378 minipeptide: "(NH3) FITC-GGGG-AVRGIMDALHMAAR-GG (COOH) (FITC labeled Ala peptide) (SEQ ID NO: 28)" ({FITC}-GGGGAVRGIMDALHMAARGG-OH)

Binding to / competition at HR2 target (MFN2 HR2): did not
Compound: Ser^378 minipeptide: "(NH3) FITC-GGGG-AVRGIMDSLHMAAR-GG (COOH) (FITC labeled Ser peptide) (SEQ ID NO: 26)" ({FITC}-GGGGAVRGIMDSLHMAARGG-OH)
